# Measurements reported in patent US20220017486A1, “DOCK1-INHIBITING COMPOUND AND USE THEREOF” (KYUSHU UNIVERSITY, NATIONAL UNIVERSITY CORPORATION, priority 2018, published 2022).
# What was measured:
# [1] = system: mouse lung carcinoma cell line (3LL cells); assay: Cell invasion inhibition assay (Matrigel invasion chamber); type: cell-based; settings: in words
# Description: In this Pharmacological Test, the inhibitory effect of each test compound on cell invasion response was evaluated using a mouse lung carcinoma cell line (3LL cells), a mouse pancreatic cancer cell line (PANC02 cells), and a human breast cancer cell line (MDA-MB-157 cells). Of these, the mouse lung carcinoma cell line (3LL) is a cancer cell line with mutant Ras (K-Ras (G12C)), and the human breast cancer cell line (MDA-MB-157) is a cancer cell line with mutant Rac (Rac1 (P29S)). The experiments were performed in BD BioCoat Matrigel invasion chambers (BD Biosciences).
# Specifically, an upper chamber with a Matrigel-coated membrane insert (8 μm pores) at the bottom was equilibrated with DMEM (serum-free medium) for 120 minutes. Thereafter, 300 μL of a suspension of a cancer cell line in DMEM (serum-free) was placed in the upper chamber while 500 μL of DMEM (with 10 mass % FCS) was placed in the lower chamber. Each test compound dissolved in DMSO at a predetermined concentration was added to both the culture media in the upper and lower chambers. As a control, DMSO alone was added to both the culture media in the upper and lower chambers. In all of the experiments, the final DMSO concentration in the culture media was adjusted to 0.2 mass %.
# The resulting products were cultured under 5% CO2 at 37° C. for 22 hours (3LL and PANC02 cells) or 48 hours (MDA-MB-157 cells). Then, the upper chamber was removed, and the culture medium was removed. Thereafter, non-invading cells remaining in the upper chamber were removed using a cotton swab, and the cells remaining outside the bottom of the upper chamber (cells that had invaded into the Matrigel, and passed through the membrane insert) were stained with Diff-Quick (Sysmex). After staining, the membrane inserts with Matrigel were cut out using a scalpel to prepare slides, and the number of invading cells was counted under an optical microscope.
# The results were evaluated based on percent cell invasion (%: Invasion) and percent inhibition (%: Inhibition). The percent cell invasion was obtained by converting the number of invading cells in the presence of each test compound into a percentage, taking the number of invading cells in the control test, in which DMSO was added alone, as 100%; and the percent inhibition was obtained by deducting the percent cell invasion from 100.
# DOCK1 (DHR-2 domain) = target: T1, DOCK1 (DHR-2 domain) (Homo sapiens, UniProt Q14185); assay: In vitro GEF assay: Rac activation by DOCK1 DHR-2 domain; type: biochemical, mice and humans; settings: in words; for selective inhibitory activity against DOCK1 versus DOCK2: GEF assay DOCK1 vs DOCK2 DHR-2 domain
# T1 construct: polypeptide fragments corresponding to the DHR-2 domain of DOCK1 or DOCK2 from mice and humans; Histidine-SUMO (N); made in house; host or cells: E. coli Arctic express (DE3)
# T1 sequence (Q14185 1207-1617 limits assumed): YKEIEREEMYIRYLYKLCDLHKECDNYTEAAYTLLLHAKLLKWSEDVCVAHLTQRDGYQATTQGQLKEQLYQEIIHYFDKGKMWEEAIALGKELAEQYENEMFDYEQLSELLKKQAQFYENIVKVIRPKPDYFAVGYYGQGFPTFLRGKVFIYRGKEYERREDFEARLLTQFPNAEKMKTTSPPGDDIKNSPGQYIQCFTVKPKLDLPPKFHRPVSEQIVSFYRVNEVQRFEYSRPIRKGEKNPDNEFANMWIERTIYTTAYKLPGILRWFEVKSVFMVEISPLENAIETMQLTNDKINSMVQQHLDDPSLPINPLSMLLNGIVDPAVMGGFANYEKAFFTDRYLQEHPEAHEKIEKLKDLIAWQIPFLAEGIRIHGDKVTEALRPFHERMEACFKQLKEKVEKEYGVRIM
# Description: DOCK1 and DOCK2, i.e., DOCK-A subfamily members, both activate Rac by catalyzing the GTP-GDP exchange reaction for Rac via their DHR-2 domains. Therefore, in this Pharmacological Test, the inhibitory effect of the compounds of the present invention on Rac activation by DOCK1 or DOCK2 was assessed in an in vitro GEF assay by using polypeptide fragments corresponding to the DHR-2 domain of DOCK1 or DOCK2 from mice and humans. The in vitro GEF assay was performed using a labeled GTP (Bodipy-FL-GTP, Invitrogen), which has a property of increasing the fluorescence intensity when bound to Rac.
# The polypeptide fragments corresponding to the DHR-2 domain of DOCK1 or DOCK2 were prepared by expression in E. coli Arctic express (DE3) cells as N-terminal. Histidine-SUMO tag-fused recombinant proteins, followed by purification by affinity column chromatography on nickel-NTA columns.
# Rac was prepared by expression in E. coli BL21 (DE3) cells as an N-terminal GST tag-fused recombinant protein, followed by purification by affinity column chromatography on glutathione-Sepharose columns.
# Each of the polypeptide fragments corresponding to the DHR-2 domain of DOCK1 or DOCK2, and a predetermined concentration of each test compound (the compounds of the present invention: 33 types of compounds; and comparative compound: TBOPP) dissolved in DMSO were incubated in a reaction solution A (pH 7.0), which contained 20 mM of MES-NaOH, 150 mM of NaCl, 10 mM of MgCl2, and 20 μM of GDP for 20 minutes at room temperature while being shielded from light to thus prepare GEF pretreated products. The final concentration of DMSO was adjusted to 1 mass % in all of the test samples. For a control test, a GEF pretreated product (control) was prepared by incubation in the same manner using DMSO with no test compounds, instead of the DMSO used above in which each test compound was dissolved.
# Separately, Rac was added to the reaction solution A (pH 7.0) to a concentration of 15 μM, and was allowed to stand on for 30 min to form a GDP-Rac complex. Bodipy-FL-GTP was added to a concentration of 3.6 μM to 100 μL of the reaction solution A that contained the thus-prepared GDP-Rac complex, and equilibrated at 30° C. for 2 minutes. After equilibration, 50 μL of the GEF pretreated product prepared as described above was added and reacted at 30° C.
# Changes in fluorescence intensity of Bodipy-FL-GTP in the reaction solutions were monitored using an EnSpire spectrofluorometer (Perkin Elmer) (excitation wavelength: 488 nm, fluorescence wavelength: 514 nm). The measured values were corrected so that the fluorescence intensity at the beginning of the reaction (0 sec) was 0. Then, an approximate curve (hyperbola) was obtained by plotting the calculated correction values on the y-axis and the time (t) on the x-axis using GraphPad Prism5 (GraphPad software), and the slope at t=0 to 10 seconds was defined as the initial velocity of the guanine nucleotide exchange reaction. The IC50 value was calculated taking the initial reaction velocity of the control, to which only a solvent (DMSO) was added, as 100%.
# Based on the obtained results, columns A and B of FIG. 1, FIG. 2, FIG. 3-1, and FIG. 3-2 show the results evaluating the inhibitory effect on Rac activation by DOCK1 (DHR-2 domain) (IC50 value), and DOCK1-selective inhibitory effect (DOCK1/DOCK2 selectivity) of each test compound. The inhibitory effect on Rac activation by DOCK1 (DHR-2 domain) (IC50 value) was determined from the reaction inhibition curve plotted using values of Rac activation by the DOCK1 DHR-2 domain in the presence of various concentrations of the test compounds, taking the values of the control as 100%. […]
Compound,percent cell invasion inhibition compared with TBOPP [1],selective inhibitory activity against DOCK1 versus DOCK2 (DOCK1 (DHR-2 domain)),DOCK1-inhibiting activity compared with TBOPP (DOCK1 (DHR-2 domain); GEF assay),selective inhibitory activity against DOCK1 compared to TBOPP (DOCK1 (DHR-2 domain); GEF assay)
"O=C(Cn1cc(S(=O)(=O)N2CCCC2)cc1-c1ncco1)c1ccc(-c2cccc(C(F)(F)F)c2)cc1 [RT-58, 2-(2-(oxazol-2-yl)-4-(pyrrolidin-1-yl-sulfonyl)-1H-pyrrol-1-yl)-1-(3′-(trifluoromethyl)-[1,1′-biphenyl]-4-yl)ethan-1-one]",higher percent cell invasion inhibition than TBOPP,higher selective inhibitory activity against DOCK1 than against DOCK2,–,–
"CC(=O)c1cc(S(=O)(=O)N2CCCC2)cn1CC(=O)c1ccc(-c2cccc(C(F)(F)F)c2)cc1 [HS-16, 2-(2-acetyl-4-(pyrrolidin-1-yl-sulfonyl)-1H-pyrrol-1-yl)-1-(3′-(trifluoromethyl)-[1,1′-biphenyl]-4-yl)ethane-1-one]",higher percent cell invasion inhibition than TBOPP,higher selective inhibitory activity against DOCK1 than against DOCK2,–,–
"O=C(Cn1cc(S(=O)(=O)N2CCCC2)ccc1=O)c1ccc(-c2cccc(C(F)(F)F)n2)cc1 [KS-22, 1-(2-oxo-2-(4-(6-(trifluoromethyl)pyridin-2-yl)phenyl)ethyl)-5-(pyrrolidin-1-yl-sulfonyl)pyridin-2(1H)-one]",higher percent cell invasion inhibition than TBOPP,–,–,–
"O=C(Cn1cc(S(=O)(=O)N2CCCC2)ccc1=O)c1ccc(-c2ccc3ncccc3c2)cc1 [KS-23, 1-(2-oxo-2-(4-(quinolin-6-yl)phenyl)ethyl)-5-(pyrrolidin-1-yl-sulfonyl)pyridin-2(1H)-one]",higher percent cell invasion inhibition than TBOPP,–,–,–
"O=C(Cn1cc(S(=O)(=O)N2CCCC2)ccc1=O)c1ccc(-c2ccc3cccnc3c2)cc1 [KS-18, 1-(2-oxo-2-(4-(quinolin-7-yl)phenyl)ethyl)-5-(pyrrolidin-1-yl-sulfonyl)pyridin-2(1H)-one]",higher percent cell invasion inhibition than TBOPP,–,–,–
"O=C(Cn1cc(S(=O)(=O)N2CCC(c3ccc(-c4cc(F)c(F)c(F)c4)cc3)CC2)ccc1=O)c1ccc(-c2cc(F)c(F)c(F)c2)cc1 [KS-59, 1-(2-oxo-2-(3′,4′,5′-trifluoro-[1,1′-biphenyl]-4-yl)ethyl)-5-((4-(3′,4′,5′-trifluoro-[1,1′-biphenyl]-4-yl)piperidin-1-yl)sulfonyl)pyridin-2(1H)-one]",higher than those of TBOPP,higher selective inhibitory activity against DOCK1 than against DOCK2,higher than those of TBOPP,higher than those of TBOPP
"O=C(Cn1cc(S(=O)(=O)N2CCCC2)ccc1=O)c1ccc(-c2cccc(SC(F)(F)F)c2)cc1 [KS-21, 1-(2-oxo-2-(3′-((trifluoromethyl)thio)-[1,1′-biphenyl]-4-yl)ethyl)-5-(pyrrolidin-1-yl-sulfonyl)pyridin-2(1H)-one]",higher percent cell invasion inhibition than TBOPP,–,–,–
"Nc1cc(S(=O)(=O)N2CCCC2)cn(CC(=O)c2ccc(-c3cccc(C(F)(F)F)c3)cc2)c1=O [RT-13, 3-amino-1-(2-oxo-2-(3′-(trifluoromethyl)-[1,1′-biphenyl]-4-yl)ethyl)-5-(pyrrolidin-1-yl-sulfonyl)pyridin-2(1H)-one]",higher percent cell invasion inhibition than TBOPP,–,–,–
"CCC(=O)c1cc(S(=O)(=O)N2CCCC2)cn1CC(=O)c1ccc(-c2cccc(C(F)(F)F)c2)cc1 [HS-17, 1-(1-(2-oxo-2-(3′-(trifluoromethyl)-[1,1′-biphenyl]-4-yl)ethyl)-4-(pyrrolidin-1-yl-sulfonyl)-1H-pyrrol-2-yl)propan-1-one]",higher percent cell invasion inhibition than TBOPP,–,–,–
"COC(=O)c1cc(S(=O)(=O)N2CCCC2)cn1CC(O)c1ccc(-c2cccc(C(F)(F)F)c2)cc1 (stereo not shown) [HS-6, methyl 1-(2-hydroxy-2-(3′-(trifluoromethyl)-[1,1′-biphenyl]-4-yl)ethyl)-4-(pyrrolidin-1-yl-sulfonyl)-1H-pyrrole-2-carboxylate]",higher percent cell invasion inhibition than TBOPP,higher selective inhibitory activity against DOCK1 than against DOCK2,–,–
